In patent publication US9856263B2, “Heteroaromatic compounds and their use as dopamine D1 ligands” (PFIZER INC., priority 2014, dated 2018):
Read-outs that look alike come from different tables or passages of the source.

Biological target: Human D1 Receptor (Homo sapiens (Human), UniProt P21728)
Assay: Human D1 receptor binding assay ([3H]-SCH23390 competition binding)
Conditions: over-expressing LTK human cell lines, 0.5 nM [3H]-SCH23390, 30 min at 37° C., footnote a = single determination, b = geometric mean of ≧5 determinations
Method: D1 binding assays were performed using over-expressing LTK human cell lines. […] These ligand and tissue concentrations were used in time course studies to determine linearity and equilibrium conditions for binding. […] The pellet was resuspended in assay buffer [50 mM Tris (pH 7.4@ RT) containing 4 mM MgSO4 and 0.5 mM EDTA]. […] Non-specific binding was determined by radioligand binding in the presence of a saturating concentration of (+)-Butaclamol (10 μM), a D1 antagonist After a 30 minute incubation period at 37° C., assay samples were rapidly filtered through Unifilter-96 GF/B PEI-coated filter plates and rinsed with 50 mM Tris buffer (pH 7.4 at 4° C.). […] Ki values were calculated according to the Cheng-Prusoff equation: […]

[1] = read-out: Human D1 Receptor Binding, Ki (nM), Geometric mean of 2-4 determinations (unless otherwise indicated)

Sequence of Human D1 Receptor (P21728 whole entry): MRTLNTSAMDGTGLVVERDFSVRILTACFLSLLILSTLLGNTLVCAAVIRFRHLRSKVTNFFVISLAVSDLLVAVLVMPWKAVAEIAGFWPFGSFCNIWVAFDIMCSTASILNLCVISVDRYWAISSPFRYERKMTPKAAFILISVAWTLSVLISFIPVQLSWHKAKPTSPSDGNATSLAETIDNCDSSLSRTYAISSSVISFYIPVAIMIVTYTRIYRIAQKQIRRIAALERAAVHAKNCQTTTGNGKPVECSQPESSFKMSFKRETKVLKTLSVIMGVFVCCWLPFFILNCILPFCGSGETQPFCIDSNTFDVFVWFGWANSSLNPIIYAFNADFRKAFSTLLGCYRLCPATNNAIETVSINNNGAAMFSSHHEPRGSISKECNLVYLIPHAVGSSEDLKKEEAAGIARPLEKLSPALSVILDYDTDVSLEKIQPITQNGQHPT

Ki [1] [nM] | Ki [nM] | SMILES
96.3 |  | Cc1cc(Oc2nccn3cccc23)ccc1-c1c(C)cnnc1C (single isomer, unassigned) [Example 12, (−)-1-[4-(3,5-dimethylpyridazin-4-yl)-3-methylphenoxy]pyrrolo[1,2-a]pyrazine]
13.1 |  | Cc1cc(Oc2nccn3cccc23)ccc1-c1c(C)cnnc1C (single isomer, unassigned) [Example 13, (+)-1-[4-(3,5-dimethylpyridazin-4-yl)-3-methylphenoxy]pyrrolo[1,2-a]pyrazine]
22.1 |  | Cc1cc(Oc2nccn3cccc23)ccc1-c1c(C)ncnc1C [Example 4, 1-[4-(4,6-dimethylpyrimidin-5-yl)-3-methylphenoxy]pyrrolo[1,2-a]pyrazine]
56.4 |  | Cc1cc(Oc2ncnn3cccc23)ccc1-c1c(C)ncnc1C [Example 5, 4-[4-(4,6-dimethylpyrimidin-5-yl)-3-methylphenoxy]pyrrolo[2,1-f][1,2,4]triazine]
61.3 |  | Cc1cc(Oc2nccn3nccc23)ccc1-c1c(C)ncnc1C [Example 6, 4-[4-(4,6-dimethylpyrimidin-5-yl)-3-methylphenoxy]pyrazolo[1,5-a]pyrazine]
514 |  | Cc1ncnc(C)c1-c1ccc(Oc2nccn3nccc23)cc1 [Example 7, 4-[4-(4,6-dimethylpyrimidin-5-yl)phenoxy]pyrazolo[1,5-a]pyrazine]
107 |  | Cc1cc(Oc2nccn3nccc23)ccc1-c1c(C)ncc2nccn12 [Example 8, 6-methyl-5-[2-methyl-4-(pyrazolo[1,5-a]pyrazin-4-yloxy)phenyl](8-^2H)imidazo[1,2-a]pyrazine]
35.8 |  | Cc1cc(Oc2ncnn3cccc23)ccc1-c1c(C)cnnc1C [Example 9, 4-[4-(3,5-dimethylpyridazin-4-yl)-3-methylphenoxy]pyrrolo[2,1-f][1,2,4]triazine]
 | 63.9 | Cc1ncnc(C)c1-c1ccc(Oc2nccn3cccc23)cc1C#N [Example 10, 2-(4,6-dimethylpyrimidin-5-yl)-5-(pyrrolo[1,2-a]pyrazin-1-yloxy)benzonitrile]
1820 |  | Cc1ncnc(C)c1-c1ccc(Oc2nccn3nccc23)cc1C#N [Example 11, 2-(4,6-dimethylpyrimidin-5-yl)-5-(pyrazolo[1,5-a]pyrazin-4-yloxy)benzonitrile]
18.8 |  | Cc1n[nH]c(=O)c(C)c1-c1ccc(Oc2nccn3cccc23)cc1 [Example 14, 4,6-dimethyl-5-[4-(pyrrolo[1,2-a]pyrazin-1-yloxy)phenyl]pyridazin-3(2H)-one]
7.3 |  | Cc1c(-c2ccc(Oc3nccn4cccc34)cc2)n(C)c(=O)[nH]c1=O [Example 15, 1,5-dimethyl-6-[4-(pyrrolo[1,2-a]pyrazin-1-yloxy)phenyl]pyrimidine-2,4(1H,3H)-dione]
58.2 |  | Cc1ncnc(C)c1-c1ccc(Oc2ncnn3cccc23)cc1F [Example 16, 4-[4-(4,6-dimethylpyrimidin-5-yl)-3-fluorophenoxy]pyrrolo[2,1-f][1,2,4]triazine]
183 |  | Cc1ncnc(C)c1-c1ccc(Oc2nccn3nccc23)cc1F [Example 17, 4-[4-(4,6-dimethylpyrimidin-5-yl)-3-fluorophenoxy]pyrazolo[1,5-a]pyrazine]
1150 |  | Cc1cc(Oc2ncnn3cccc23)ccc1-c1c(C)nc2ncccn12 [Example 18, 4-[3-methyl-4-(2-methylimidazo[1,2-a]pyrimidin-3-yl)phenoxy]pyrrolo[2,1-f][1,2,4]triazine]
672 |  | COc1cc(Oc2ncnn3cccc23)ccc1-c1c(C)ncnc1C [Example 19, 4-[4-(4,6-dimethylpyrimidin-5-yl)-3-methoxyphenoxy]pyrrolo[2,1-f][1,2,4]triazine]
59.3 |  | Cc1ncnc(C)c1-c1ccc(Oc2nccn3cccc23)cc1F [Example 20, 1-[4-(4,6-dimethylpyrimidin-5-yl)-3-fluorophenoxy]pyrrolo[1,2-a]pyrazine]
102 |  | Cc1ncnc(C)c1-c1ccc(Oc2nccn3cccc23)cc1 [Example 21, 1-[4-(4,6-dimethylpyrimidin-5-yl)phenoxy]pyrrolo[1,2-a]pyrazine]
105 |  | Cc1cnnc(C)c1-c1ccc(Oc2ncnn3cccc23)cc1F [Example 22, 4-[4-(3,5-dimethylpyridazin-4-yl)-3-fluorophenoxy]pyrrolo[2,1-f][1,2,4]triazine]

Ki [1] [nM] | Ki [nM] | SMILES
894 |  | COc1cc(Oc2nccn3nccc23)ccc1-c1c(C)ncnc1C [Example 23, 4-[4-(4,6-dimethylpyrimidin-5-yl)-3-methoxyphenoxy]pyrazolo[1,5-a]pyrazine]
83.9 |  | COc1cc(Oc2ncnn3cccc23)ccc1-c1cccnc1C [Example 24, 4-[3-methoxy-4-(2-methylpyridin-3-yl)phenoxy]pyrrolo[2,1-f][1,2,4]triazine]
56.4 |  | COc1cc(Oc2nccn3cccc23)ccc1-c1cccnc1C [Example 25, 1-[3-methoxy-4-(2-methylpyridin-3-yl)phenoxy]pyrrolo[1,2-a]pyrazine]
86.1 |  | Cc1ncnc(C)c1-c1cc(F)c(Oc2nccn3cccc23)cc1F [Example 26, 1-[4-(4,6-dimethyipyrimidin-5-yl)-2,5-difluorophenoxy]pyrrolo[1,2-a]pyrazine]
28.1 |  | COc1cc(Oc2nccn3cccc23)ccc1-c1c(C)cnnc1C [Example 27, 1-[4-(3,5-dimethylpyridazin-4-yl)-3-methoxyphenoxy]pyrrolo[1,2-a]pyrazine]
198 |  | Cc1cc(Oc2nccn3cccc23)ccc1-c1c(C)nnc2nccn12 [Example 28, 3-methyl-4-[2-methyl-4-(pyrrolo[1,2-a]pyrazin-1-yloxy)phenyl]imidazo[2,1-c][1,2,4]triazine]
85.7 |  | Cc1ncnc(C)c1-c1cc(F)c(Oc2ncnn3cccc23)cc1F [Example 29, 4-[4-(4,6-dimethylpyrimidin-5-yl)-2,5-difluorophenoxy]pyrrolo[2,1-f][1,2,4]triazine]
59 |  | Cc1ncnc(C#N)c1-c1ccc(Oc2nccn3cccc23)cc1F [Example 30, 5-[2-fluoro-4-(pyrrolo[1,2-a]pyrazin-1-yloxy)phenyl]-6-methylpyrimidine-4-carbonitrile]
179 |  | Cc1ncnc(C)c1-c1ccc(Oc2nccn3cccc23)c(F)c1C [Example 31, 1-[4-(4,6-dimethylpyrimidin-5-yl)-2-fluoro-3-methylphenoxy]pyrrolo[1,2-a]pyrazine]
116 |  | Cc1ncnc(C)c1-c1ccc(Oc2ncnn3cccc23)c(F)c1C [Example 32, 4-[4-(4,6-dimethylpyrimidin-5-yl)-2-fluoro-3-methylphenoxy]pyrrolo[2,1-f][1,2,4]triazine]
252 |  | Cc1ncnc(C)c1-c1ccc(Oc2ncnn3cccc23)c(F)c1 [Example 33, 4-[4-(4,6-dimethylpyrimidin-5-yl)-2-fluorophenoxy]pyrrolo[2,1-f][1,2,4]triazine]
49.4 |  | Cc1ncnc(C)c1-c1ccc(Oc2nccn3cccc23)c(F)c1 [Example 34, 1-[4-(4,6-dimethylpryimidin-5-yl)-2-fluorophenoxy]pyrrolo[1,2-a]pyrazine]
31.5 |  | Cc1cc(Oc2nccn3cccc23)c(F)cc1-c1c(C)ncnc1C [Example 35, 1-[4-(4,6-dimethylpyrimidin-5-yl)-2-fluoro-5-methylphenoxy]pyrrolo[1,2-a]pyrazine]
48.7 |  | Cc1ncnc(C)c1-c1ccc(Oc2ncnn3cccc23)cc1Cl [Example 36, 4-[3-chloro-4-(4,6-dimethylpyrimidin-5-yl)phenoxy]pyrrolo[2,1-f][1,2,4]triazine]
12.7 |  | Cc1ncnc(C)c1-c1ccc(Oc2nccn3cccc23)cc1Cl [Example 37, 1-[3-chloro-4-(4,6-dimethylpyrimidin-5-yl)phenoxy]pyrrolo[1,2-a]pyrazine]
141 |  | Cc1ncnc(C)c1-c1ccc(Oc2ncnn3cccc23)cc1C#N [Example 38, 2-(4,6-dimethylpyrimidin-5-yl)-5-(pyrrolo[2,1-f][1,2,4]triazin-4-yloxy)benzonitrile]
31.2 |  | Cc1cc(Oc2ncnn3cccc23)ccc1-c1c(C)ncc(=O)n1C [Example 39, 1,5-dimethyl-6-[2-methyl-4-(pyrrolo[2,1-f][1,2,4]triazin-4-yloxy)phenyl]pyrazin-2(1H)-one]
> 6400 |  | Cc1cc(Oc2ccnc3ccnn23)ccc1-c1c(C)ncnc1C [Example 40, 7-[4-(4,6-dimethylpyrimidin-5-yl)-3-methylphenoxy]pyrazolo[1,5-a]pyrimidine]
34.7 |  | COc1cc(Oc2nccn3cccc23)ccc1-c1c(C)ncnc1C [Example 41, 1-[4-(4,6-dimethylpyrimidin-5-yl)-3-methoxyphenoxy]pyrrolo[1,2-a]pyrazine]
